Measured values: patent publication US5064815A, “Primycin-containing colloidal basic gel” (Chinoin Gyogyszer es Vegyeszeti Termekek Gyara RT., priority 1985, dated 1991)
Counter-ions that a name gives are not always drawn. Like-named read-outs stand apart in the source and are kept apart here.

Columns and labels:
[1] = Solubility in N-methyl pyrrolidone; type: physicochemical; conditions: for Behaviour of heated N-methyl pyrrolidone solution on cooling: significant heating needed
From the text: We have examined the quantity in ml of N-methyl-pyrrolidone which is necessary to dissolve 0.1 gram of each respective compound.

[2] = Spontaneous gel-formation with solvents / with N-methyl-pyrrolidone / mixed gels; type: physicochemical
From the text: We have studies spontaneous gel-formation with various solvents on the one hand and various pharmaceutical active ingredients on the other. The following solvents are used: methanol, ethanol, isopropanol, n-butanol, isobutanol, dichloromethane, chloroform, carbon tetrachloride, ethyl acetate, acetonitrile, n-hexane, petrol, benzene, toluene, petrolether, ether, dimethyl formamide, dimethyl sulfoxide, isopropyl myristate.
Furtheron gel-formation has been studied between N-methyl-pyrrolidone and further pharmaceutical active ingredients. The following active ingredients are used: gentamycin, doxycyclin, oxolinic acid, nalidixic acid, drotaverin, theophyllin, acetyl salicylic acid, papaverin, indomethacin.
We have studied furtheron the possibility of the preparation of mixed gels comprising two active ingredients, including antibiotics other then primycin (e.g. gentamicin, doxycyclin, oxytetracyclin, chloramphenicol etc.).

gram-positive bacteria = conditions: cited from earlier work
acne = conditions: human, in vivo

Molecule | Required amount of N-methyl pyrrolidone necessary to dissolve 0.1 g ([1]; (A) Room Temperature) | Required amount of N-methyl pyrrolidone necessary to dissolve 0.1 g ([1]; (B) Under Heating) | Gel formation with N-methyl-pyrrolidone [2] | other results
[H]/N=C(/N)N[C@H]1[C@H](O)[C@@H](O)[C@H](O[C@@H]2O[C@@H](C)[C@](O)(C=O)[C@H]2O[C@@H]2O[C@@H](CO)[C@H](O)[C@@H](O)[C@@H]2NC)[C@@H](N/C(N)=N\[H])[C@@H]1O [Streptomycin Sulfate] | 20.0 milliliters | does not dissolve | – | –
CCOc1ccc(/C=C2\NCCc3cc(OCC)c(OCC)cc32)cc1OCC [drotaverin] | – | – | None of the above active ingredients form a stable transparent gel | –
C[C@H]1c2cccc(O)c2C(O)=C2C(=O)[C@]3(O)C(O)=C(C(N)=O)C(=O)[C@@H](N(C)C)[C@@H]3[C@@H](O)[C@@H]21 [doxycyclin] | 10.0 milliliters | 2.0 milliliters | None of the above active ingredients form a stable transparent gel | –
CC(=O)Oc1ccccc1C(=O)O [acetyl salicylic acid] | – | – | None of the above active ingredients form a stable transparent gel | –
Cn1c(=O)c2[nH]cnc2n(C)c1=O [theophyllin] | – | – | None of the above active ingredients form a stable transparent gel | –
COc1ccc2c(c1)c(CC(=O)O)c(C)n2C(=O)c1ccc(Cl)cc1 [indomethacin] | – | – | None of the above active ingredients form a stable transparent gel | –
CCn1cc(C(=O)O)c(=O)c2ccc(C)nc21 [nalidixic acid] | does not dissolve | 6.0 milliliters | None of the above active ingredients form a stable transparent gel | Behaviour of heated N-methyl pyrrolidone solution on cooling [1]: precipitates after cooling
gentamycin | – | – | None of the above active ingredients form a stable transparent gel | –
CC(=O)OCC(=O)[C@@]1(O)CC[C@H]2[C@@H]3CCC4=CC(=O)CC[C@]4(C)[C@H]3[C@@H](O)C[C@@]21C [Hydrocortisone-Acetate] | 1.0 milliliters | 0.2 milliliters | – | –
CCCSc1ccc2nc(NC(=O)OC)[nH]c2c1 [Albendazole] | 1.5 milliliters | 1.0 milliliters | – | –
[5-(18-(α-D-arabinofuranosyloxy)-2-butyl-3,7,11,15,19,21,23,25,27-nonahydroxy-4,16,32,34-tetramethyl-1-oxo-oxacyclohexatriaconta-16,32-dien-35- yl)-4-hydroxyhexyl]-guanidinium-sulfate [Primycin] | does not dissolve | 0.5 milliliters | spontaneous gel-formation resulting in the formation of a stable transparent gel | Pure gel formation with other solvents ([2]; ethanol amine, diethanol amine, triethanol amine, dimethyl formamide, dimethyl sulfoxide, 5-30%): pure gel is formed neither in the cold nor in the warm; Stable gel formation with solvents ([2]; methanol, ethanol, isopropanol, n-butanol, isobutanol, dichloromethane, chloroform, carbon tetrachloride, ethyl acetate, acetonitrile, n-hexane, petrol, benzene, toluene, petrolether, ether, dimethyl formamide, dimethyl sulfoxide, isopropyl myristate): None of the above solvents forms a stable gel with primycin; Precipitation from 1% solutions (1% solutions prepared under heating, on cooling): primycin precipitated upon cooling; Solubility, dissolved material (methanol): 2 µg/mL; Solubility, dissolved material (propylene glycol): 5 µg/mL; Solubility, dissolved material (water): 0.05 µg/mL; Solubility in N-methyl-pyrrolidone (in words) [1]: not easily dissolved; Temperature-dependance of the solubility [1]: more than two orders of magnitude; Effect in combination with other antibiotics (gram-positive bacteria; Hungarian patent No. 158,241): synergistic effect; Antibacterial spectrum (gram-positive bacteria; prior art): particularly effective against gram-positive bacteria but active against polyresistant human pathogenic strains as well; Resistance development (gram-positive bacteria; prior art): No resistance has developed; Absorption into the blood stream (acne): not to be absorbed by the blood stream; Skin irritation on topical application (acne): severe irritation to the skin; Toxicity upon entry into the bloodstream (acne): significantly toxic
COc1ccc(Cc2nccc3cc(OC)c(OC)cc23)cc1OC [papaverin] | – | – | None of the above active ingredients form a stable transparent gel | –
CCn1cc(C(=O)O)c(=O)c2cc3c(cc21)OCO3 [oxolinic acid] | does not dissolve | 8.0 milliliters | None of the above active ingredients form a stable transparent gel | Behaviour of heated N-methyl pyrrolidone solution on cooling [1]: precipitates after
C[C@@H]1[C@H](O)[C@@H](C)/C=C/C=C/CC/C=C/C=C/C=C/C=C/C(O[C@H]2O[C@H](C)[C@@H](O)[C@H](N)[C@@H]2O)CC2O[C@](O)(CC(O)C(O)CCC(O)CC(O)CC(O)CC(=O)O[C@H]1C)CC(O)C2C(=O)O (stereo partly drawn) [Nystatin] | 5.0 milliliters | 2.0 milliliters | – | –
